Reference: patent publication US7232846B2, “Amines as anti-alcoholism agents” (priority 2001, dated 2007)

Assays:
[1] = test system: genetically-alcoholic rats (UChB strain); assay: Anti-alcoholism activity in genetically-alcoholic rats (consumption of 10% v/v alcohol); assay type: in vivo, rat; conditions: for Reduction percentage in the consumption of alcohol (10% v/v), treat.: first 6 h after starting the treatment, vs reference period; for Reduction percentage in the consumption of alcohol (10% v/v), post-treat.: first 6 h after having stopped a 3-day treatment
Source text: As an animal model of alcoholic humans, adult Wistar rats of both sexes, belonging to the UChB strain were used. This strain of rats is the result of a long selection at the University of Chile, and rats belonging to it are known to be volunteer consumers of 10% (v/v) aqueous alcohol (cf. J. Mardones and N. Segovia-Riquelme, “Thirty two years of selection of rats by ethanol preference”: UChA and UChB strains”, Neurobehav. Toxicol. and Teratol. 1983, vol. 5, pp. 171–178). Thus, the rats used in these experiments can be considered genetically alcoholic.
Rats were kept in individual cages at 22° C., with alternative 12 h periods of light and darkness. Besides unlimited access to food, they had ad libitum access to water and 10% (v/v) aqueous alcohol. All experiments were double-blind, and results were analyzed using common statistical methods. As changes in alcohol consumption might be influenced by the eagerness of food and/or water intake, both the consumption of food and of water were measured and analyzed. However, experimental changes in the consumptions of both food and water were not significant. In each experiment the following three periods of time were considered:
a) A reference period, consisting of the three days previous to treatment. The measured consumption values were used as reference for comparison purposes.
b) A treatment period, consisting of the three days during which aqueous solutions of the tested compounds (obtained from SIGMA) were intra-gastrically administered, always at the same time of the day. Polyamines were administered as aqueous solutions of their corresponding fully-neutralized hydrochlorides, at concentration of 100 mg of the free-amine per 100 ml of water, when doses of 2 mg of amine per kg of rat; and at concentration of 1000 mg/100 ml, When doses of 20 mg/kg. Dansyl derivatives of polyamines were administered as aqueous suspensions of 100 mg of derivative per 100 ml of water, when doses of 4 mg of free-amine per kg of rat.
c) A post-treatment period, consisting of the three days immediate after the treatment period, during which measurement were taken in order to establish the duration of the effect and the reversibility of the changes.
Table 1 summarizes the average results from nine experiments, each one carried out with a set of 8 rats, where several compounds at different doses were used, and measurements of alcohol consumption were done at 6 h after the beginning of the treatment period, and at 6 h after the beginning of the post-treatment period. Figures in the table are differences in 10% (v/v) ethanol consumption between a given consumption during the reference period and the corresponding consumption during the treatment (or post-treatment) period, expressed a percentage of the consumption during the reference period (i.e. divided by this and multiplied by 100). As indicated by the figures, during treatment a significant reduction occurred in all cases; and during post-treatment a significant reduction occurred in all cases but two (those marked “ns”=non significant). Results in the table also indicate that there is a dose-effect relationship in the reduction of alcohol consumption during the treatment period.

[2] = Assessment of the disulfiram-like adverse effect (blood acetaldehyde after ethanol injection); assay type: in vivo, rat; conditions: Wistar rats, single 2 mg/kg p.o. 1 h before ethanol, mean ± SEM
Experimental: Blood samples were taken from the tail of the rat at different times after the injection of the ethanol solution. […] The animals of the disulfiram group received two doses of 300 mg p.o. of disulfiram per kg of rat, 23 h and 17 h before the administration of ethanol. The high concentration of acetaldehyde detected in these groups was expected. […] The animals of the other four groups received a single dose p.o. of 2 mg of the corresponding compound (in the form of 10 mg/100 ml aqueous solutions, which was of the hydrochlorides in the case of polyamines) per kg of rat, 1 h before the administration of ethanol. Figures in the table are mean values (±SEM) of acetaldehyde concentration in blood at the indicated times. It is observed that values of the groups corresponding to the four tested compounds were only slightly above the control ones, but far below the corresponding values of the disulfiram group.

[3] = dose 20 mg/kg, ns = non significant
[4] = dose 2 mg/kg, ns = non significant

| Compound | Reduction percentage in the consumption of alcohol (10% v/v), treat. ([1]; dose 20 mg/kg intra-gastric) [%] | Reduction percentage in the consumption of alcohol (10% v/v), post-treat. [1, 3] | Reduction percentage in the consumption of alcohol (10% v/v), treat. ([1]; dose 2 mg/kg intra-gastric) [%] | Reduction percentage in the consumption of alcohol (10% v/v), post-treat. [1, 4] | Reduction percentage in the consumption of alcohol (10% v/v), treat. ([1]; dose 4 mg/kg intra-gastric) [%] | Reduction percentage in the consumption of alcohol (10% v/v), post-treat. ([1]; dose 4 mg/kg) [%] | Acetaldehyde concentration in blood ([2]; 0.5 h after i.p. 2.76 g/kg ethanol) [μg/100 ml] | Acetaldehyde concentration in blood ([2]; 2 h after i.p. 2.76 g/kg ethanol) [μg/100 ml] |
| --- | --- | --- | --- | --- | --- | --- | --- | --- |
| NCCCN [1,3-propanediamine] | 27 | 12% | – | – | – | – | – | – |
| NCCCCN [putrescine] | 28 | 13% | 13 | ns | – | – | – | – |
| NCCCCNCCCN [spermidine] | 29 | ns | 25 | 17% | – | – | – | – |
| NCCCNCCCCNCCCN [spermine] | 42 | 12% | 27 | 29% | – | – | – | – |
| dansyl putrescine | – | – | – | – | 23 | 22 | – | – |
| dansyl spermidine | – | – | – | – | 29 | 19 | 150 ± 5 | 40 ± 9 |
